Data reported in ChEMBL document CHEMBL4613323, “Factor H-Inspired Design of Peptide Biomarkers of the Complement C3d Protein” (ACS Med Chem Lett, 2020).

Biological target: Complement C3 (Homo sapiens, UniProt P01024)
Experiment: Binding affinity to recombinant human C3d assessed as dissociation constant incubated for 5 mins by microscale thermophoresis assay

Complement C3, sequence (P01024 23-667 limits assumed): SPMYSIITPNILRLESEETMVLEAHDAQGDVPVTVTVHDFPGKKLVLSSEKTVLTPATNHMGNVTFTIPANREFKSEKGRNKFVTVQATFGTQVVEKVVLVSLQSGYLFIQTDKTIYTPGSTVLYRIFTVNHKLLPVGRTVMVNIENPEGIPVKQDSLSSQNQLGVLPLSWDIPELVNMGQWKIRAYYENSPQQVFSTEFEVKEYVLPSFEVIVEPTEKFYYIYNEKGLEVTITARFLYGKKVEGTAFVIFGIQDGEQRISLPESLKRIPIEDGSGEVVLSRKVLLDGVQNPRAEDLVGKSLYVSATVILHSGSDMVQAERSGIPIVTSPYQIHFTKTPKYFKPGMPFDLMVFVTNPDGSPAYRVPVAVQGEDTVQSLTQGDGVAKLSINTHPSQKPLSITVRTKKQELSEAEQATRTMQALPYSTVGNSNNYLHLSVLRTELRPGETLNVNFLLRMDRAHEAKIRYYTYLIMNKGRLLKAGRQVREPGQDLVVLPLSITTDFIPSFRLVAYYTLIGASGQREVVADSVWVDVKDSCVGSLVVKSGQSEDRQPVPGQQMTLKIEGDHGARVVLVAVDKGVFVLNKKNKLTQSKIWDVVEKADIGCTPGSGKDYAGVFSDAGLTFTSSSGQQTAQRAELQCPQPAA
Complement C3, sequence (P01024 672-1663 limits assumed): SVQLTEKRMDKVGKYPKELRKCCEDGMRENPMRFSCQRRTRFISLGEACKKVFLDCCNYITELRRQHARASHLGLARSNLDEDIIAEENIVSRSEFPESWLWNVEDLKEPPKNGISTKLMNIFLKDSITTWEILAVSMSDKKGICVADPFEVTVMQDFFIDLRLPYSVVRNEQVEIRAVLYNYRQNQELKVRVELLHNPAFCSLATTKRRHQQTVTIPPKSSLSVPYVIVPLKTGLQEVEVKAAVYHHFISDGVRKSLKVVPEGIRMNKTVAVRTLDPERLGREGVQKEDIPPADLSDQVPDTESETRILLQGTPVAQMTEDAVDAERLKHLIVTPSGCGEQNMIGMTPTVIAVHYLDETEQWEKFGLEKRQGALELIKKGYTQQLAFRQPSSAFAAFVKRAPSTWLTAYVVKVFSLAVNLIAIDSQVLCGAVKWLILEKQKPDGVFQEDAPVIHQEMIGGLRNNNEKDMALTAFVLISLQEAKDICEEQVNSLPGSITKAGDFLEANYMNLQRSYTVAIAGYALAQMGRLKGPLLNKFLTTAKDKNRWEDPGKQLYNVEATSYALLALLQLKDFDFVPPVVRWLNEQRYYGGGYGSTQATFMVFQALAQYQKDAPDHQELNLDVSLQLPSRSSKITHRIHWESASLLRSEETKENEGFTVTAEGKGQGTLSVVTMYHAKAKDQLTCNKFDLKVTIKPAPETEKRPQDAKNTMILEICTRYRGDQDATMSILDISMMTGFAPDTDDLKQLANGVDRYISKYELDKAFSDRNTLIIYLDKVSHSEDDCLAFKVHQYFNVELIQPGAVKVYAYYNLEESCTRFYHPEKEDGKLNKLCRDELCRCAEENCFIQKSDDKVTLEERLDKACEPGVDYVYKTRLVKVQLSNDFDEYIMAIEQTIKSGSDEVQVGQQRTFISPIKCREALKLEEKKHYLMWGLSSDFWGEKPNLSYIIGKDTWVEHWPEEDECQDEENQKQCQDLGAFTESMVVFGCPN

Kd: 61.6 µM
SMILES: CC(=O)NCC(=O)N[C@H]1CSSC[C@@H](C(=O)NCC(N)=O)NC(=O)[C@H](CCCNC(=N)N)NC(=O)[C@H](Cc2ccc(O)cc2)NC(=O)CNC(=O)[C@H](CCCNC(=N)N)NC(=O)[C@H](CCCCN)NC1=O (stereo in doubt; form 2)
